According to PubChem BioAssay (NCI):
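GI50 = concentration required for 50% inhibition of growth. TGI denotes the concentration required for complete inhibition of growth.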

How the values were obtained:
Test in all cases: DTP human tumour cell line panel, 384-well format
786-0 renal = system: 786-0 renal
A498 renal = system: A498 renal
A549 NSCLC = system: A549 NSCLC
ACHN renal = system: ACHN renal
BT-549 breast = system: BT-549 breast
CAKI-1 renal = system: CAKI-1 renal
CCRF-CEM leukemia = system: CCRF-CEM leukemia
COLO 205 colon = system: COLO 205 colon
DU-145 prostate = system: DU-145 prostate
EKVX NSCLC = system: EKVX NSCLC
HCC-2998 colon = system: HCC-2998 colon
HCT-116 colon = system: HCT-116 colon
HCT-15 colon = system: HCT-15 colon
HL-60(TB) leukemia = system: HL-60(TB) leukemia
HOP-62 NSCLC = system: HOP-62 NSCLC
HOP-92 NSCLC = system: HOP-92 NSCLC
HS 578T breast = system: HS 578T breast
HT29 colon = system: HT29 colon
IGROV1 ovarian = system: IGROV1 ovarian
K-562 leukemia = system: K-562 leukemia
KM12 colon = system: KM12 colon
LOX IMVI melanoma = system: LOX IMVI melanoma
M14 melanoma = system: M14 melanoma
MALME-3M melanoma = system: MALME-3M melanoma
MCF7 breast = system: MCF7 breast
MDA-MB-231 breast = system: MDA-MB-231 breast
MDA-MB-435 melanoma = system: MDA-MB-435 melanoma
MDA-MB-468 breast = system: MDA-MB-468 breast
MOLT-4 leukemia = system: MOLT-4 leukemia
NCI-H226 lung = system: NCI-H226 lung
NCI-H23 lung = system: NCI-H23 lung
NCI-H322M lung = system: NCI-H322M lung
NCI-H460 NSCLC = system: NCI-H460 NSCLC
NCI-H522 lung = system: NCI-H522 lung
NCI/ADR-RES ovarian = system: NCI/ADR-RES ovarian
OVCAR-3 ovarian = system: OVCAR-3 ovarian
OVCAR-4 ovarian = system: OVCAR-4 ovarian
OVCAR-5 ovarian = system: OVCAR-5 ovarian
OVCAR-8 ovarian = system: OVCAR-8 ovarian
PC-3 prostate = system: PC-3 prostate
RPMI-8226 leukemia = system: RPMI-8226 leukemia
RXF 393 renal = system: RXF 393 renal
SF-268 CNS = system: SF-268 CNS
SF-295 CNS = system: SF-295 CNS
SF-539 CNS = system: SF-539 CNS
SK-MEL-28 melanoma = system: SK-MEL-28 melanoma
SK-MEL-5 melanoma = system: SK-MEL-5 melanoma
SK-OV-3 ovarian = system: SK-OV-3 ovarian
SN12C renal = system: SN12C renal
SNB-19 CNS = system: SNB-19 CNS
SNB-75 CNS = system: SNB-75 CNS
SW-620 colon = system: SW-620 colon
T-47D breast = system: T-47D breast
TK-10 renal = system: TK-10 renal
U251 glioblastoma = system: U251 glioblastoma
UACC-257 melanoma = system: UACC-257 melanoma
UACC-62 melanoma = system: UACC-62 melanoma
UO-31 renal = system: UO-31 renal
SK-MEL-2 melanoma = system: SK-MEL-2 melanoma
SR leukemia = system: SR leukemia

## COc1cc(C(=O)N[C@@H]2CCCN(C)C2)ccc1Nc1ncc2c(n1)N(C1CCCC1)CC(C)(C)C(=O)N2C
786-0 renal
  GI50: 63.8 nM
  TGI: 1440 nM
A498 renal
  GI50: 206 nM
  TGI: 1850 nM
A549 NSCLC
  GI50: 38.7 nM
  TGI: 1090 nM
ACHN renal
  GI50: 541 nM
  TGI: 2230 nM
BT-549 breast
  GI50: 43.2 nM
  TGI: 309 nM
CAKI-1 renal
  GI50: 395 nM
  TGI: 2640 nM
CCRF-CEM leukemia
  TGI: 21.3 nM
COLO 205 colon
  GI50: 19.5 nM
  TGI: 71.4 nM
DU-145 prostate
  GI50: 35.1 nM
  TGI: 206 nM
EKVX NSCLC
  GI50: 119 nM
  TGI: 1880 nM
HCC-2998 colon
  GI50: 21.8 nM
  TGI: 94.2 nM
HCT-116 colon
  GI50: 39.4 nM
  TGI: 705 nM
HCT-15 colon
  GI50: 69.6 nM
  TGI: 334 nM
HL-60(TB) leukemia
  GI50: 14.3 nM
  TGI: 28.3 nM
HOP-62 NSCLC
  GI50: 31.7 nM
  TGI: 598 nM
HOP-92 NSCLC
  GI50: 88.1 nM
  TGI: 989 nM
HS 578T breast
  GI50: 16.9 nM
  TGI: 89 nM
HT29 colon
  GI50: 21.2 nM
  TGI: 68.1 nM
IGROV1 ovarian
  GI50: 45.7 nM
  TGI: 1670 nM
K-562 leukemia
  GI50: 19.1 nM
  TGI: 55.4 nM
KM12 colon
  GI50: 17 nM
  TGI: 1050 nM
LOX IMVI melanoma
  GI50: 34.1 nM
  TGI: 201 nM
M14 melanoma
  GI50: 27.3 nM
  TGI: 136 nM
MALME-3M melanoma
  GI50: 45.9 nM
  TGI: 251 nM
MCF7 breast
  GI50: 28.9 nM
  TGI: 1300 nM
MDA-MB-231 breast
  GI50: 41.8 nM
  TGI: 2220 nM
MDA-MB-435 melanoma
  GI50: 19 nM
  TGI: 40.6 nM
MDA-MB-468 breast
  TGI: 16.3 nM
MOLT-4 leukemia
  GI50: 13.3 nM
  TGI: 26.4 nM
NCI-H226 lung
  GI50: 1620 nM
  TGI: 12000 nM
NCI-H23 lung
  GI50: 17.6 nM
  TGI: 52.6 nM
NCI-H322M lung
  GI50: 510 nM
  TGI: 3730 nM
NCI-H460 NSCLC
  GI50: 21.7 nM
  TGI: 47.9 nM
NCI-H522 lung
  GI50: 17.1 nM
  TGI: 37.5 nM
NCI/ADR-RES ovarian
  GI50: 695 nM
  TGI: 2340 nM
OVCAR-3 ovarian
  GI50: 18.1 nM
  TGI: 47.9 nM
OVCAR-4 ovarian
  GI50: 1110 nM
  TGI: 2780 nM
OVCAR-5 ovarian
  GI50: 35.9 nM
  TGI: 1220 nM
OVCAR-8 ovarian
  GI50: 22.3 nM
  TGI: 53.9 nM
PC-3 prostate
  GI50: 62.1 nM
  TGI: 2620 nM
RPMI-8226 leukemia
  GI50: 31.6 nM
  TGI: 101 nM
RXF 393 renal
  GI50: 20 nM
  TGI: 61.4 nM
SF-268 CNS
  GI50: 10.5 nM
  TGI: 47 nM
SF-295 CNS
  GI50: 38.6 nM
  TGI: 196 nM
SF-539 CNS
  GI50: 36 nM
  TGI: 267 nM
SK-MEL-28 melanoma
  GI50: 128 nM
  TGI: 911 nM
SK-MEL-5 melanoma
  GI50: 25.3 nM
  TGI: 133 nM
SK-OV-3 ovarian
  GI50: 45.6 nM
  TGI: 1200 nM
SN12C renal
  GI50: 94.2 nM
  TGI: 2210 nM
SNB-19 CNS
  GI50: 50.1 nM
  TGI: 1850 nM
SNB-75 CNS
  GI50: 285 nM
  TGI: 2610 nM
SW-620 colon
  GI50: 20.5 nM
  TGI: 114 nM
T-47D breast
  GI50: 81.5 nM
  TGI: 892 nM
TK-10 renal
  GI50: 1170 nM
  TGI: 4970 nM
U251 glioblastoma
  GI50: 46.7 nM
  TGI: 1440 nM
UACC-257 melanoma
  GI50: 40.8 nM
  TGI: 612 nM
UACC-62 melanoma
  GI50: 33.7 nM
  TGI: 252 nM
UO-31 renal
  GI50: 345 nM
  TGI: 1390 nM

## CC1(C)CCC(c2ccc(Cl)cc2)=C(CN2CCN(c3ccc(C(=O)NS(=O)(=O)c4ccc(N[C@H](CCN5CCOCC5)CSc5ccccc5)c(S(=O)(=O)C(F)(F)F)c4)cc3)CC2)C1
786-0 renal
  GI50: 1620 nM
  TGI: 3030 nM
A498 renal
  GI50: 1160 nM
  TGI: 2390 nM
A549 NSCLC
  GI50: 1630 nM
  TGI: 3120 nM
ACHN renal
  GI50: 1800 nM
  TGI: 3200 nM
BT-549 breast
  GI50: 1810 nM
  TGI: 3230 nM
CAKI-1 renal
  GI50: 2020 nM
  TGI: 3460 nM
CCRF-CEM leukemia
  GI50: 69.8 nM
  TGI: 198 nM
COLO 205 colon
  GI50: 1250 nM
  TGI: 2510 nM
DU-145 prostate
  GI50: 2300 nM
  TGI: 4790 nM
HCC-2998 colon
  GI50: 150 nM
  TGI: 765 nM
HCT-116 colon
  GI50: 1600 nM
  TGI: 2990 nM
HCT-15 colon
  GI50: 1750 nM
  TGI: 3180 nM
HL-60(TB) leukemia
  GI50: 195 nM
  TGI: 893 nM
HOP-62 NSCLC
  GI50: 2030 nM
  TGI: 3490 nM
HOP-92 NSCLC
  GI50: 135 nM
  TGI: 771 nM
HT29 colon
  GI50: 1840 nM
  TGI: 3270 nM
IGROV1 ovarian
  GI50: 1560 nM
  TGI: 2990 nM
K-562 leukemia
  GI50: 1940 nM
  TGI: 3350 nM
KM12 colon
  GI50: 1760 nM
  TGI: 3230 nM
LOX IMVI melanoma
  GI50: 1950 nM
  TGI: 3370 nM
M14 melanoma
  GI50: 1830 nM
  TGI: 3240 nM
MALME-3M melanoma
  GI50: 1870 nM
  TGI: 3270 nM
MCF7 breast
  GI50: 1880 nM
  TGI: 4580 nM
MDA-MB-231 breast
  GI50: 316 nM
  TGI: 1170 nM
MDA-MB-435 melanoma
  GI50: 1940 nM
  TGI: 3390 nM
MDA-MB-468 breast
  GI50: 1590 nM
  TGI: 3080 nM
MOLT-4 leukemia
  GI50: 22.1 nM
  TGI: 64 nM
NCI-H226 lung
  GI50: 1100 nM
  TGI: 2310 nM
NCI-H23 lung
  GI50: 1730 nM
  TGI: 3130 nM
NCI-H322M lung
  GI50: 1880 nM
  TGI: 3670 nM
NCI-H460 NSCLC
  GI50: 1840 nM
  TGI: 3280 nM
NCI-H522 lung
  GI50: 1850 nM
  TGI: 3650 nM
NCI/ADR-RES ovarian
  GI50: 2800 nM
  TGI: 7690 nM
OVCAR-3 ovarian
  GI50: 1560 nM
  TGI: 2900 nM
OVCAR-4 ovarian
  GI50: 1270 nM
  TGI: 2790 nM
OVCAR-5 ovarian
  GI50: 1460 nM
  TGI: 2840 nM
OVCAR-8 ovarian
  GI50: 1750 nM
  TGI: 3140 nM
PC-3 prostate
  GI50: 1740 nM
  TGI: 3120 nM
RPMI-8226 leukemia
  GI50: 82.1 nM
  TGI: 207 nM
RXF 393 renal
  GI50: 17.4 nM
  TGI: 325 nM
SF-268 CNS
  GI50: 1880 nM
  TGI: 3360 nM
SF-295 CNS
  GI50: 1750 nM
  TGI: 3140 nM
SF-539 CNS
  GI50: 1720 nM
  TGI: 3110 nM
SK-MEL-2 melanoma
  GI50: 1230 nM
  TGI: 2480 nM
SK-MEL-28 melanoma
  GI50: 1930 nM
  TGI: 3390 nM
SK-MEL-5 melanoma
  GI50: 1660 nM
  TGI: 3020 nM
SK-OV-3 ovarian
  GI50: 1960 nM
  TGI: 3480 nM
SN12C renal
  GI50: 2130 nM
  TGI: 3590 nM
SNB-19 CNS
  GI50: 2170 nM
  TGI: 4020 nM
SR leukemia
  GI50: 365 nM
  TGI: 2040 nM
SW-620 colon
  GI50: 940 nM
  TGI: 2120 nM
T-47D breast
  GI50: 1870 nM
  TGI: 3520 nM
TK-10 renal
  GI50: 1660 nM
  TGI: 3050 nM
U251 glioblastoma
  GI50: 1910 nM
  TGI: 3390 nM
UACC-257 melanoma
  GI50: 1590 nM
  TGI: 3010 nM
UACC-62 melanoma
  GI50: 1800 nM
  TGI: 3190 nM
UO-31 renal
  GI50: 1370 nM
  TGI: 2670 nM
